Earlier results as cited in US20250283018A1, “TOILET RIM BLOCKS WITH SCENT CHANGE” (SYMRISE AG, priority 2021, published 2025).
Read-outs that look alike come from different tables or passages of the source.

Columns and labels:
[1] = not given; remark: listed apart in the source
[2] = Table 3, components of POWER PLATIN

Row | Compound | Bp. [° C.] [2] [°C] | Bp. [° C.] (Table 2, components of PEACH) [°C] | Bp. [° C.] (Table 1, components of MARINA) [°C] | also measured
1 | CC(C)=CCCC(C)CCO (stereo not drawn) [CITRONELLOL 950] | 223 | – | – | –
2 | CC(C)=CCCC(C)CCOC(=O)C(C)C (stereo not drawn) [CITRONELLYLISOBUTYRAT] | – | 267 | – | logP ([1]; Table 2, components of PEACH): 5.47; logP ([1]; list of selected fragrances): 5.04; Bp. [° C.] (list of selected fragrances): 267 °C
3 | C=CCOC(=O)COC1CCCCC1 [CYCLOGALBANAT] | 256 | – | 256 | Bp. [° C.] (list of selected fragrances): 256 °C
4 | C/C=C/C(=O)C1=C(C)C=CCC1(C)C [DAMASCENON] | 263 | 263 | – | logP ([1]; Table 2, components of PEACH): 4.21; logP [1, 2]: 4.21
5 | CCCCCC1CCCC(=O)O1 (stereo not drawn) [DECALACTON DELTA] | – | 267 | – | logP ([1]; Table 2, components of PEACH): 2.57
6 | C/C=C/C(=O)C1C(C)C=CCC1(C)C (stereo not drawn) [DELTA DEMASCONE] | 251 | 251 | – | logP ([1]; Table 2, components of PEACH): 4.16; logP [1, 2]: 4.16; Bp. [° C.] (list of selected fragrances): 251 °C
7 | C=CC(C)CCCC(C)(C)O (stereo not drawn) [DIHYDROMYRCENOL] | 194 | – | 194 | logP ([1]; Table 1, components of MARINA): 3.47; logP [1, 2]: 3.47
8 | c1ccc(Oc2ccccc2)cc1 [DIPHENYLOXID] | 258 | – | 258 | logP ([1]; Table 1, components of MARINA): 4.05; logP [1, 2]: 4.05
9 | CC(O)COC(C)CO (stereo not drawn) [DIPROPYLENGLYCOL] | 231 | 231 | 231 | –
10 | CCCCCCCCC1CCC(=O)O1 (stereo not drawn) [DODECALACTON GAMMA] | – | 291 | – | logP ([1]; Table 2, components of PEACH): 3.55
11 | CCC(=CCC1CC=C(C)C1(C)C)CO (stereo not drawn) [ETHYL TRIMETHYLCYCLOPENTENE BUTENOL] | – | – | – | logP ([1]; list of selected fragrances): 4.63; Bp. [° C.] (list of selected fragrances): 276 °C
12 | CCCCCC(=O)OCC [ETHYLCAPRONAT] | – | 166 | – | –
13 | O=C1CCCCCCCCCCCC(=O)OCCO1 [ETHYLENBRASSYLAT] | – | – | 382 | logP ([1]; Table 1, components of MARINA): 4.71
14 | CCc1occc(=O)c1O [ETHYLMALTOL] | 290 | – | – | logP [1, 2]: 0.3
15 | CCOC(=O)C(C)CC (stereo not drawn) [ETHYLMETHYLBUTYRAT-2] | – | 135 | 135 | –
16 | CC12CCC(CC1)C(C)(C)O2 [EUCALYPTOL NAT.] | – | – | 176 | –
17 | C=CCc1ccc(O)c(OC)c1 [EUGENOL] | 253.2 | – | – | Bp. [° C.] (list of selected fragrances): 253.2 °C
18 | CC12CCC(C1)C(C)(C)C2O (stereo not drawn) [FENCHOL] | – | – | 212 | –
19 | CCc1ccc(CC(C)(C)C=O)cc1 [FLORALOZONE] | 276.6 | – | – | logP [1, 2]: 3.94
20 | CC1CC(C)(c2ccccc2)OC(C)O1 (stereo not drawn) [FLOROPAL] | – | – | 273 | logP ([1]; Table 1, components of MARINA): 3.11
21 | Cc1ccc2c(c1)OC(=O)C2C (stereo not drawn) [FURAMINTON/TONKALACTONE ™] | – | 284 | – | logP ([1]; Table 2, components of PEACH): 1.44

Row | Compound | Bp. [° C.] [2] [°C] | Bp. [° C.] (Table 2, components of PEACH) [°C] | Bp. [° C.] (Table 1, components of MARINA) [°C] | also measured
22 | CCCCCCC1CCC(=O)O1 (stereo not drawn) [GAMA DECALACTONE] | – | 266 | – | logP ([1]; Table 2, components of PEACH): 2.57; logP ([1]; list of selected fragrances): 2.36; Bp. [° C.] (list of selected fragrances): 266 °C
23 | CCCCCC1C(=O)CCC1CC(=O)OC (stereo not drawn) [HEDION] | 296 | 296 | – | –
24 | O=Cc1ccc2c(c1)OCO2 [HELIOTROPIN/PIPERONAL] | – | – | – | logP ([1]; list of selected fragrances): 1.35; Bp. [° C.] (list of selected fragrances): 263 °C
25 | CCCCCC(C)=O [HEPTANON-2] | – | 150 | – | logP ([1]; Table 2, components of PEACH): 1.73
26 | CC/C=C\CCO [HEXENOL CIS-3] | – | 157 | 157 | –
27 | CCC/C=C/CO [HEXENOL TRANS-2] | – | 159 | – | –
28 | CC/C=C/CCOC(=O)c1ccccc1O [HEXENYLSALICYLAT CIS-3] | – | – | – | logP ([1]; list of selected fragrances): 4.5; Bp. [° C.] (list of selected fragrances): 301 °C
29 | CCCCCCOC(C)=O [HEXYLACETAT] | – | 169 | 169 | –
30 | CCCCCCOC(=O)c1ccccc1O [HEXYLSALICYLAT, hexyl salicylate] | – | – | 327 | logP ([1]; Table 1, components of MARINA): 5.06; logP ([1]; list of selected fragrances): 4.98; Bp. [° C.] (list of selected fragrances): 327 °C
31 | CC12CCC(CC1=O)C2(C)C (stereo not drawn) [KAMPFER DL] | – | – | 204 | –
32 | CC/C=C\CCOC(=O)OC [LEAFOVERT ®] | – | 189 | – | –
33 | CC(=O)OC1CC(C)CCC1C(C)C (stereo not drawn) [MENTHYL ACETATE] | – | – | – | Bp. [° C.] (list of selected fragrances): 255 °C
34 | CCCCCC1C(=O)CCC1CC(=O)OC (stereo not drawn) [METHYLDIHYDROJASMONATE] | – | – | – | Bp. [° C.] (list of selected fragrances): 296 °C
35 | CC(=O)c1oc2ccccc2c1C [NEROLIONE] | – | 272 | – | –
36 | CCCCC1CCC(=O)O1 (stereo not drawn) [OCTALACTON GAMMA] | – | 234 | – | –
37 | C=CCCC(=O)C(=C)C1CCCCC1 [PHARAONE 10% DPG] | 0 | – | – | –
38 | CC(=O)OC(C)c1ccccc1 (stereo not drawn) [STYROLYLACETAT] | – | 214 | 214 | –
39 | CCC(C)(O)CCCC(C)C (stereo not drawn) [TETRAHYDROLINALOOL] | 197 | – | 197 | –
40 | CC1=CC(C)C(C=O)CC1 (stereo not drawn) [VERTOCITRAL] | – | – | 187 | –
41 | BORNEOL L/ISOBORNEOL 65/35 | 212 | – | – | –
42 | TERPINEOL REIN | – | 219.16 | 219.16 | –
